Source: the CheMixHub viscosity set

Assay: xn = mol fraction of the nth substance listed

CCCCCCCCN(CCCCCCCC)CCCCCCCC + Cc1ccccc1
298.15 K, 101.33 kPa
Details | viscosity [mPa·s]
x1 = 0.015 | 0.595
x1 = 0.033 | 0.646
x1 = 0.075 | 0.775
x1 = 0.231 | 1.405

CCOC(=O)CCl + Cc1ccccc1
viscosity [mPa·s], 101.3 kPa
Details | x1 = 0.1004 | x1 = 0.207 | x1 = 0.299 | x1 = 0.4013 | x1 = 0.5048 | x1 = 0.6083 | x1 = 0.6963 | x1 = 0.8022 | x1 = 0.9006
298.15 K | 0.594 | 0.631 | 0.671 | 0.714 | 0.768 | 0.823 | 0.878 | 0.945 | 1.02
303.15 K | 0.561 | 0.594 | 0.63 | 0.669 | 0.719 | 0.77 | 0.818 | 0.881 | 0.947
308.15 K | 0.528 | 0.559 | 0.59 | 0.626 | 0.671 | 0.718 | 0.758 | 0.817 | 0.873

CCCCOCCO + Cc1ccccc1C
viscosity [mPa·s], 101 kPa
Details | 298.15 K | 308.15 K
x1 = 0.0549 | 0.797 | 0.686
x1 = 0.1475 | 0.891 | 0.756
x1 = 0.2508 | 1.004 | 0.84
x1 = 0.3485 | 1.129 | 0.933
x1 = 0.4527 | 1.286 | 1.052
x1 = 0.5 | 1.366 | 1.113
x1 = 0.5489 | 1.457 | 1.182
x1 = 0.6483 | 1.666 | 1.341
x1 = 0.7518 | 1.925 | 1.54
x1 = 0.8493 | 2.216 | 1.765
x1 = 0.9524 | 2.586 | 2.053

CNC=O + Cc1ccccc1N
viscosity [mPa·s], 100 kPa
Details | x1 = 0.0896 | x1 = 0.1601 | x1 = 0.2501 | x1 = 0.3425 | x1 = 0.4328 | x1 = 0.5424 | x1 = 0.6554 | x1 = 0.7342 | x1 = 0.8414
303.15 K | 3.114 | 3 | 2.853 | 2.702 | 2.553 | 2.369 | 2.179 | 2.045 | 1.86
308.15 K | 2.708 | 2.617 | 2.498 | 2.375 | 2.254 | 2.105 | 1.95 | 1.84 | 1.689
313.15 K | 2.393 | 2.317 | 2.219 | 2.117 | 2.016 | 1.892 | 1.763 | 1.671 | 1.544
318.15 K | 2.081 | 2.022 | 1.946 | 1.865 | 1.786 | 1.688 | 1.585 | 1.513 | 1.411

CCCCCCBr + ClC(Cl)(Cl)Cl
101 kPa
Details | viscosity [mPa·s]
298.15 K, x1 = 0.1135 | 0.8881
298.15 K, x1 = 0.1518 | 0.8858
298.15 K, x1 = 0.1823 | 0.8835
298.15 K, x1 = 0.2319 | 0.8822
298.15 K, x1 = 0.3098 | 0.8844
298.15 K, x1 = 0.474 | 0.8943
298.15 K, x1 = 0.6449 | 0.9113
303.45 K, x1 = 0.0686 | 0.8329
303.45 K, x1 = 0.0894 | 0.8281
303.45 K, x1 = 0.1554 | 0.8277
303.45 K, x1 = 0.1952 | 0.8288
303.45 K, x1 = 0.2666 | 0.8328
303.45 K, x1 = 0.424 | 0.8436
303.45 K, x1 = 0.5955 | 0.8555
303.45 K, x1 = 0.7896 | 0.8708
313.35 K, x1 = 0.0691 | 0.7236
313.35 K, x1 = 0.0909 | 0.723
313.35 K, x1 = 0.1303 | 0.7251
313.35 K, x1 = 0.1568 | 0.7252
313.35 K, x1 = 0.1996 | 0.7259
313.35 K, x1 = 0.2736 | 0.7309
313.35 K, x1 = 0.5015 | 0.7462
313.35 K, x1 = 0.7896 | 0.7649

CCOCCOCCOCC + ClC(Cl)(Cl)Cl
298.15 K, 101 kPa
Details | viscosity [mPa·s]
x1 = 0.0066 | 0.914
x1 = 0.0198 | 0.932
x1 = 0.0498 | 0.975
x1 = 0.0871 | 1.016
x1 = 0.127 | 1.051
x1 = 0.1781 | 1.093
x1 = 0.2051 | 1.115
x1 = 0.2354 | 1.134
x1 = 0.2797 | 1.161
x1 = 0.3206 | 1.18
x1 = 0.3371 | 1.189
x1 = 0.3614 | 1.202
x1 = 0.3768 | 1.21
x1 = 0.4165 | 1.225
x1 = 0.4689 | 1.241
x1 = 0.5264 | 1.257
x1 = 0.5651 | 1.269
x1 = 0.599 | 1.269
x1 = 0.6708 | 1.274
x1 = 0.715 | 1.286
x1 = 0.7943 | 1.293
x1 = 0.8245 | 1.283
x1 = 0.8784 | 1.282
x1 = 0.9126 | 1.282
x1 = 0.9535 | 1.273
